What was measured:
Sprague Dawley rats [1] = assay: myocardial ischemia/reperfusion injury; assay type: in vivo, rat; conditions: for circulating levels of cardiac troponin I (cTnI) / infarct size as a percentage of the area at risk: acute p.o. 2 h prior to ischemia, GSK2181236A 0.1 and 1.0 mg/kg, BAY 60-4552 0.3 and 3 mg/kg, 24 h reperfusion
Method: This study was performed at CV Dynamics, Inc. (Newark, NJ, USA). Male SD rats were obtained from Charles River Laboratories, Inc. (Kingston, NY, USA). At 2 months of age, rats were pre-medicated with atropine (0.04 mg/kg IM) then anesthetized with a loading dose of pentobarbital sodium (65 mg/kg IP). A supplemental dose of pentobarbital sodium (16.3 mg/kg IP) was administered 30–40 min after the initial anesthesia. Marcaine (0.025–0.05 mg/rat IM) was administered locally for pain control, and anesthetized rats were subjected to a thoracotomy at the fourth intercostal space. The left descending coronary artery was occluded using a 5-0 silk snare for 30 min, followed by reperfusion for 24 h. The coronary occlusion and reperfusion were verified by visual inspection (color change of myocardium from pale to pink) and by EKG monitoring [ST elevation and widening of the QRS; Gould BioTACH ECG module (Valley View, OH, USA) with a Tektronix TDS 220 monitor (Beaverton, OR, USA)]. A 2% lidocaine solution (2–3 mg/kg) was dripped directly onto the heart as needed for arrhythmia control during ischemia, and procainamide (12.5 mg/kg IP) was administered 15 min prior to reperfusion.
Rats were orally gavaged with vehicle (0.5% HPMC, 5% DMSO, and 0.1% Tween 80; 10 mL/kg; n = 14), GSK2181236A (0.1 or 1.0 mg/kg; n = 11–14), or BAY 60-4552 (0.3 or 3.0 mg/kg; n = 10–12) 2 h prior to ischemia. Blood was collected at the initiation of ischemia and after 24 h reperfusion. Plasma was obtained for analysis of compound concentrations and levels of cardiac Troponin I (cTnI), a circulating biomarker of cardiac injury. Plasma concentrations of cTnI were determined using a commercially available ELISA (catalog #2010-2-HSP, Life Diagnostics, West Chester, PA, USA) according to the manufacturer’s instructions. Plasma compound concentrations were determined by LC/MS/MS (API 5000 triple quadrupole mass spectrometer, ABSciex, Foster City, CA, USA; Prominence liquid chromatographic system, Shimadzu, Columbia, MD, USA). Rats were anesthetized with a mixture of ketamine and xylazine (35 and 5 mg/kg, IM) and euthanized via exsanguination. Hearts were excised and perfused with 1% Evans blue dye in saline then perfused-fixed with 10% neutral buffered formalin (∼90 mmHg perfusion pressure). Hearts were sliced on the short axis from apex to base at 1–2 mm intervals, and the ischemic area (area at risk) was evaluated using Image Pro-Plus (Media Cybernetics, Inc., Bethesda, MD, USA). Fresh heart slices were stained with 1% triphenyltetrazolium and evaluated using Image Pro-Plus for determination of infarct size.

Sprague Dawley rats [2] = assay: radiotelemetry heart rate and blood pressure after single oral dose; assay type: in vivo, rat
Method: To identify equi-efficacious doses of GSK2181236A and BAY 60-4552, heart rate and blood pressure were monitored in male Sprague Dawley (SD) rats (∼500g, n = 4–6 per group) via surgically implanted radiotelemetry transmitters (PhysioTel PA-C40, Data Sciences International, St. Paul, MN, USA). Following oral gavage dosing (0.03–3.0 mg/kg), hemodynamic data were recorded every 5 min for 10 s and then averaged every hour.

| Structure (SMILES) | mortality rate (Sprague Dawley rats [1]; 0.3 mg/kg p.o., arrhythmia and trauma during occlusion) | mortality rate (Sprague Dawley rats [1]; 3 mg/kg p.o., cardiac puncture and trauma) | circulating levels of cardiac troponin I (cTnI) (Sprague Dawley rats [1]) | infarct size as a percentage of the area at risk (Sprague Dawley rats [1]) | potency on heart rate and blood pressure, less potent than GSK2181236A (Sprague Dawley rats [2]; rat, in vivo) | highest no-effect dose on heart rate and blood pressure (Sprague Dawley rats [2]; single p.o. dose) [mg/kg] | mortality rate (Sprague Dawley rats [1]; 0.1 mg/kg p.o., due to anesthesia) | mortality rate (Sprague Dawley rats [1]; 1 mg/kg p.o., arrhythmia during occlusion and unknown cause during reperfusion) | lowering of mean arterial pressure (MAP) (Sprague Dawley rats [2]; high dose) | potency on heart rate and blood pressure, more potent than BAY 60-4552 (Sprague Dawley rats [2]; rat, in vivo) [fold] | doses that increased heart rate and reduced blood pressure (Sprague Dawley rats [2]; single p.o. dose) [mg/kg] |
| --- | --- | --- | --- | --- | --- | --- | --- | --- | --- | --- | --- |
| COC(=O)Nc1c(N)nc(-c2nn(Cc3ccccc3F)c3ncccc23)nc1N [BAY 60-4552] | 2 of 12 | 2 of 14 | did not significantly alter | did not significantly alter | approximately threefold | 0.3 |  |  |  |  |  |
| Cc1cc(-c2ccc(OC(F)(F)F)cc2)ccc1COc1ccccc1-c1cccc(-n2ncc(C(=O)O)c2C(F)(F)F)n1 [GSK2181236A, 1-(6-{2-[({3-methyl-4′-[(trifluoromethyl)oxy]-4-biphenylyl}methyl)oxy]phenyl}-2-pyridinyl)-5-(trifluoromethyl)-1H-pyrazole-4-carboxylic acid] |  |  | did not significantly alter | did not significantly alter |  | 0.1 | 1 of 15 | 2 of 13 | 5–10 mmHg | ~3 | ≥ 0.3 |

Reference: paper PMC3389674, “Comparison of Soluble Guanylate Cyclase Stimulators and Activators in Models of Cardiovascular Disease Associated with Oxidative Stress” (Frontiers in Pharmacology, 2012)
